These results are taken from patent US20220394981A1, “MICRONUTRIENT FORMULATIONS THAT CONTROL PLANT PATHOGENS” (priority 2021, published 2022).

The conditions of data set [1]: cited from earlier work.
The conditions of data set [2]: cited from earlier work. The source holds these as a separate data set.
For data set [3] the following is noted: cited from earlier work. This is another data set of the same source.
The conditions of data set [4]: cited from earlier work. The source holds these as a separate data set.
For data set [5] the following is noted: cited from earlier work. This is another data set of the same source.
The conditions of data set [6]: cited from earlier work. This is another data set of the same source.
A further data set deals with CLas bacteria. The data set is classed as in vivo, Ruby red grapefruit trees. As for the experimental part:
(§1) Experimental testing was performed at the Florida Research Center for Agricultural Sustainability (“FLARES”) in Vero Beach, Fla. where the inventor, Robert C. Adair, Jr. serves as the executive director after having founded FLARES in 2004. Testing was conducted on a uniform block of ninety-six (96) Ruby red grapefruit trees planted on Dec. 19, 2018 grafted with USDA “US-897” citrus rootstock. The red grapefruit trees were randomly assigned one of eight (8) treatments in twelve (12) replicated plots using a Randomized Complete Block (“RCB”) design to help ensure homogeneous conditions between test subject trees. The red grapefruit trees were treated using liquid formulations applied to the foliage, the soil proximal to the rhizosphere of the plant, or applied to both the foliage and the soil. The micronutrient chelate formulations were applied monthly, the citric acid treatments were applied weekly, and the iron nitrate treatment was applied every two weeks.
(§2) Before being treated, the red grapefruit trees were allowed time to establish root systems. The red grapefruit trees were exposed to infection of the CLas bacteria through native populations of the Asian citrus psyllid insect, which is the vector that spreads citrus greening disease among trees. The caliper, canopy diameter, and height for each grapefruit tree was measured prior to treatment and subsequently measured every six (6) to nine (9) months thereafter for the two-and-half (2.5) year duration of the experiment.
Individual leaf samples were collected from each of the ninety-six (96) trees and submitted to Southern Gardens Diagnostic Laboratory in Clewiston, Fla. for Polymerase Chain Reaction (“PCR”) analysis to determine the presence of CLas bacteria DNA. The results were expressed cycle threshold (“Ct”) values, and the logarithm of the copy number per milligram of tissue values were recorded and statistically evaluated. In a PCR analysis, a positive reaction is detected by the accumulation of a fluorescent signal. The Ct value is defined as the number of cycles required for a fluorescent signal to cross a threshold (i.e., exceeds background levels). Ct values are inversely proportional to the amount of a target nucleic acid in the sample being tested such that the lower the Ct level, the greater the amount of target nucleic acid in the sample. Ct values less than 29 are considered strong positive reactions indicative of an abundance of the target nucleic acid, and Ct values of 38-40 are indicative of minimal amounts of target nucleic acid.

In data set [7] the test system is Ruby red grapefruit trees. Put plainly: Tree growth versus untreated control, field trial. As to conditions: in vivo. As for the experimental part:
as §1
Before being treated, the red grapefruit trees were allowed time to establish root systems. […] The caliper, canopy diameter, and height for each grapefruit tree was measured prior to treatment and subsequently measured every six (6) to nine (9) months thereafter for the two-and-half (2.5) year duration of the experiment.
Canopy areas were determined from aerial images captured by a camera-equipped unmanned aerial vehicle (“UAV”). […]

For the next data set, the system named is citrus greening disease. The data set is classed as in vivo, Ruby red grapefruit trees. The settings on record: for Percentage of Trees Showing HLB Leaf Patterns: 270 days after the first treatment application. As for the experimental part: as §1, §2
Tree condition was scored visually according to the disease indexing (“DI”) technique taught by Gottwald, Aubert, and Xue-Yuan. See Gottwald, T. R., B. Aubert, and Z. Xue-Yuan, Preliminary Analysis of Citrus Greening (Huanglungbin) Epidemics in the People's Republic of China and French Reunion Island, PHYTOPATHOLOGY Vol. No. 79: 687-693 (1989). Disease indexing techniques divide an image of a plant into multiple sections and/or subsections, such as hemispheres and quadrants, and assign each image section a score from zero to four. The score reflects the observable severity of disease impact on a plant with a score of four indicating a plant with no visible symptoms and a score of zero indicating the highest level of severity. The score for all sections of a plant image are added together to establish an overall DI score for a particular plant image, such that a healthy vigorous tree with no symptoms has a DI of 16.
Table 5 below presents data from the visual inspection of the red grapefruit trees for the symptoms of citrus greening disease measured at 270 days after the first treatment application or approximately half way through the experiment.

Setting [8] is: treatments applied as in Table 1 (foliar and/or soil).
Where [9] appears, read: treatments applied as in Table 1 (foliar and/or soil), listed as Fe(III)EDDHA.

Read-outs that look alike come from different tables or passages of the source.

As to `O=C(O)[C@@H](O)[C@@H](O)[C@H](O)[C@@H](O)C(=O)O` [Saccharate], in [1], the “LogK Cu2+ (stability constant)” value was 14.0. Moreover, the “LogK Mn2+ (stability constant)” value in [2] is given as 8.5. Further, in [3], the “LogK Fe3+ (stability constant)” value is listed as 24.5.

For the compound `O=C(O)CC(NC(CC(=O)O)C(=O)O)C(=O)O` (centres unmarked) [IDHA, imidodisuccinic acid], the “LogK Cu2+ (stability constant)” value in data set [1] is 13.1. The “LogK Mn2+ (stability constant)” value in data set [2] was 7.7. For the same compound, the “LogK Fe3+ (stability constant)” value in data set [3] is 15.2. Further, the “LogK Zn2+ (stability constant)” value in data set [4] is 10.8.

In the case of `O=C(O)CN(CCN(CC(=O)O)CC(=O)O)CC(=O)O` [EDTA], the “LogK Cu2+ (stability constant)” value in data set [1] is on record as 18.8. For the same compound, the “LogK Mn2+ (stability constant)” value in [2] is 13.6. The “LogK Fe3+ (stability constant)” value in data set [3] is 25.1. Also, the “LogK Ca2+ (stability constant)” value in data set [5] is 10.7. The “LogK Zn2+ (stability constant)” value in data set [4] is 16.5.

Regarding `O=C(O)CN(CCN(CC(=O)O)CC(=O)O)CCN(CC(=O)O)CC(=O)O` [DTPA, diethylenetriaminepentaacetic acid], the “LogK Cu2+ (stability constant)” value in data set [1] is 21.1. In addition, the “LogK Mn2+ (stability constant)” value in [2] is listed as 15.1. In data set [3], the “LogK Fe3+ (stability constant)” value is reported as 28.6. Further, the “LogK Ca2+ (stability constant)” value in data set [5] is on record as 10.7. Moreover, the “LogK Fe2+ (stability constant)” value in data set [6] was 16.5. In addition, the “LogK Zn2+ (stability constant)” value in data set [4] was 18.3.

Turning to `O=C(O)CN(CCO)CCN(CC(=O)O)CC(=O)O` [HEEDTA], the “LogK Cu2+ (stability constant)” value in [1] is recorded as 17.4. Besides, in [2], the “LogK Mn2+ (stability constant)” value is 10.7. The “LogK Fe3+ (stability constant)” value in [3] is 19.6. Also, the “LogK Ca2+ (stability constant)” value in data set [5] is recorded as 8.0. Further, the “LogK Fe2+ (stability constant)” value in data set [6] is 12.2. In addition, in data set [4], the “LogK Zn2+ (stability constant)” value was 14.5.

Consider `O=C([O-])C(NCCNC(C(=O)[O-])c1ccccc1[O-])c1ccccc1[O-].[Fe+3].[Na+]` (centres unmarked) [Fe-EDDHA], for which, in the data set with CLas bacteria (setting [8]), the “% of PCR Analysis Showing No CLas (Ct values = 40)” value (“% of PCR Analysis Showing No CLas” for short) stood at 50%, the “Average Ct values based on qPCR analysis of citrus leaves” value (from here on “Average Ct values based”) is 34.9 and the “Log Copy #/1 mg of Leaf Tissue” value came out at 1.2. Also, in the data set with CLas bacteria (setting [9]), the “% of PCR Analysis Showing No CLas” value is on record as “highest percentage”, the “Average Ct values based” value was “highest Ct values” and the “Log Copy #/1 mg of Leaf Tissue” value is reported as “the lowest”. In addition, the “tree growth versus an untreated control” value in [7] is reported as “increased tree growth”. Besides, the “LogK Fe3+ (stability constant)” value in [3] was 35.40. Besides, the “Percentage of Trees Showing HLB Leaf Patterns” value (“Percentage” for short) in the data set on citrus greening disease (treatments as in Table 1) came out at 10%. Further, the “Percentage” value in the data set with citrus greening disease (treatments as in Table 1, listed as Fe(III)EDDHA) was “lowest percentage of observable symptoms”. Besides, the “symptoms of citrus greening disease, visually and analytically (CLas bacteria by PCR)” value in the data set with citrus greening disease (foliar and soil application) is “reduced the symptoms of citrus greening disease”. The “citrus greening disease leaf symptoms, visual inspection” value with citrus greening disease (infected grapefruit trees) is reported as “reduced”.

In the case of `O=C(O)CN(CCN(CC(=O)O)Cc1ccccc1O)Cc1ccccc1O` [HBED, N,N′-bis(2-hydroxyphenyl)ethylenediamine-N,N′-diacetic acid], the “LogK Cu2+ (stability constant)” value in data set [1] is 21.4. In [2], the “LogK Mn2+ (stability constant)” value is 16.5. In data set [3], the “LogK Fe3+ (stability constant)” value was 39.0. For the same compound, the “LogK Ca2+ (stability constant)” value in [5] is on record as 9.3. The “LogK Fe2+ (stability constant)” value in data set [6] was 17.3. Further, the “LogK Zn2+ (stability constant)” value in data set [4] is 18.3.

As to `O=C(O)[C@H](O)[C@@H](O)[C@H](O)[C@H](O)CO` [Gluconate], in data set [1], the “LogK Cu2+ (stability constant)” value is recorded as 36.0. For the same compound, in data set [3], the “LogK Fe3+ (stability constant)” value is 10.0. In addition, the “LogK Ca2+ (stability constant)” value in data set [5] is given as 1.2. In addition, in [6], the “LogK Fe2+ (stability constant)” value is reported as 1.0. Also, in data set [4], the “LogK Zn2+ (stability constant)” value is 1.7?.

Consider `O=C(O)CN(CCO)CCN(CC(=O)O)CC(=O)O` [HEDTA], for which the “LogK Cu2+ (stability constant)” value in data set [1] is listed as 17.4. The “LogK Mn2+ (stability constant)” value in [2] is recorded as 11.1. Further, the “LogK Fe3+ (stability constant)” value in [3] is on record as 19.7. Further, the “LogK Ca2+ (stability constant)” value in [5] is reported as 8.1. Besides, the “LogK Fe2+ (stability constant)” value in data set [6] was 12.2. Also, the “LogK Zn2+ (stability constant)” value in data set [4] is listed as 14.6.

Iron Citrate: in the data set on CLas bacteria (at 30 ppm Fe, foliar), the “% of PCR Analysis Showing No CLas” value amounted to 0%, the “Average Ct values based” value came to 29.7 and the “Log Copy #/1 mg of Leaf Tissue” value worked out at 2.6. Besides, in the data set on CLas bacteria (at 60 ppm Fe, foliar), the “% of PCR Analysis Showing No CLas” value was 0%, the “Average Ct values based” value came out at 31.2 and the “Log Copy #/1 mg of Leaf Tissue” value is 2.1. In the data set with citrus greening disease (at 30 ppm Fe, foliar), the “Percentage” value worked out at 44%. Further, in the data set on citrus greening disease (at 60 ppm Fe, foliar), the “Percentage” value amounted to 50%. The “LogK Fe2+ (stability constant)” value in [6] is given as 3.2.

For `O=C(O)CC(O)(CC(=O)O)C(=O)O` [Citrate], the “LogK Cu2+ (stability constant)” value in data set [1] was 5.9. Also, the “LogK Mn2+ (stability constant)” value in [2] is 3.7. Moreover, the “LogK Fe3+ (stability constant)” value in [3] is recorded as 11.85. For the same compound, the “LogK Ca2+ (stability constant)” value in [5] is 4.7. Besides, in data set [6], the “LogK Fe2+ (stability constant)” value was 3.2. In addition, the “LogK Zn2+ (stability constant)” value in data set [4] is given as 4.9.
